Test results from patent publication US7604947B2, “Detection and modulation of cancer stem cells” (Cornell Research Foundation, Inc., priority 2004, dated 2009).
Entries after “also recorded” stand apart in the source; their conditions may differ.

Key:
human REX-1 protein [1] = assay: Western blot of human REX-1 protein after retinoic acid treatment, MDA-MB-468 cells; type: cell-based; conditions: RA 1 μM for 48 hours
Source text: (§1) The following human carcinoma and leukemia cell lines were maintained as directed by the ATCC: breast cancer cells: MCF-7, MDA-MB-231, MDA-MB-453, MDA-MB-468, SK-BR3 and HS578T; prostate cancer cells: LnCAP; skin cancer cells: SCC-12, SCC-13; kidney cancer cells: SK-39; bladder cancer cells: HTB1, HT1376, HTB9; oral cavity (head and neck) cancer: SCC-4, SCC-9, SCC-25, SCC-15; leukemia cells: HL-60, NB4 and NTERA2 teratocarcinoma cells. Normal human mammary (HMEC); renal proximal tubule epithelial cells (RPTE); prostate epithelial cells (PrEC), keratinocytes (NHEK) and lung (NHBE, SAEC) epithelial cells were grown as directed by the supplier (Cambrex, Walkersville, Md.). Normal human keratinocytes were also purchased from Cascade Biologics (Portland, Oreg.) and cultured as directed. Non-tumorous bladder cancer samples were provided by Dr. Stephen Boorjian (Weill Medical College, Cornell University, NY, N.Y.) and are as described in Boorjian, S, Tickoo, S K, Mongan, N P et al. Reduced Lecithin:Retinol Acyltransferase (LRAT) Expression Correlates with Increased Pathologic Tumor Stage in Bladder Cancer. Clinical Cancer Research 2004; 10:In press. Normal and All-trans-retinoic acid (RA) (Sigma, St. Louis, Mo.) was dissolved in ethanol and used at a final concentration of 20 nM or 1 μM as indicated in the descriptions of the figures. […]

human REX-1 protein [2] = assay: Western blot of human REX-1 protein after retinoic acid treatment, HEKa cells; type: cell-based; conditions: RA 1 μM for 48 hours
Source text: as §1

hRex1 = assay: RT-PCR of hRex1 expression after retinoic acid treatment; type: cell-based, human; conditions: MDA-MB-468 cells
[3] = system: polyclonal rabbit anti-human REX-1 antibody; assay: Immunohistochemistry peptide competition of anti-REX-1 antibody staining in normal renal parenchyma; type: binding; conditions: 1 μg/mL free peptide, normal renal parenchyma sections
Experimental: Paraffin-embedded sections. Five micron tissue sections were cut from the patient blocks, and the sections were deparaffinized in Histoclear™(National Diagnostics, Atlanta, Ga.) followed by rehydration in a graded series of ethanol. Antigen retrieval was performed by heat with the Antigen Unmasking Solution (Vector Laboratories, Burlingame, Calif.) in a pressure cooker for 8 minutes. A 3% solution of H2O2 was used to quench the endogenous peroxidase activity (15 minute incubation). […] This was followed by incubation with the affinity-purified, polyclonal rabbit antihuman REX-1 primary antibody diluted 1:5 in 1.5% goat serum for 45-60 min. at room temperature, and then with 100 μL of horseradish peroxidase (HRP) conjugated goat anti-rabbit secondary antibody (SuperPicture, Zymed, San Francisco, Calif.) for 30 minutes at room temperature. Color was developed with the 3,3′-diaminobenzidine chromogen substrate, followed by counterstaining with hematoxylin (Vector). The negative control normal and tumor sections were treated identically to all other sections, with the exception that 1.5% normal goat serum was used in place of the primary antibody. […] All samples were analyzed using this identical protocol with the same reagents. The staining procedures were repeated at least three times with similar results.

| Compound | level of human REX-1 protein following RA treatment (human REX-1 protein [1]) | level of human REX-1 protein following RA treatment (human REX-1 protein [2]) | expression of hRex1 following RA treatment (hRex1) | expression of hRex1 following RA treatment (hRex1; listed as retinoic acid) | REX-1 antibody staining in presence of free peptide [3] |
| --- | --- | --- | --- | --- | --- |
| CC1=C(/C=C/C(C)=C/C=C/C(C)=C/C(=O)O)C(C)(C)CCC1 [RA, All-trans-retinoic acid] | did not alter; also recorded: unaltered | did not alter; also recorded: unaltered | not reduced | does not decrease |  |
| SNNLKAHILTHANTNKNEQEGK (listed as Homo sapiens) [free human REX-1 peptide] |  |  |  |  | staining was eliminated |
